Results published in patent US4728726A, “GRF analogs IIIb” (The Salk Institute for Biological Studies, priority 1986, dated 1988).
Square brackets hold non-standard residues; d marks the D form. Ends that are not written are not given here. Peptide text beside a SMILES is read from it. Nle = CCCC[C@H](N)C(=O)O

System: cells of rat pituitary glands
Experiment: in vitro assay of growth hormone release from cultured rat pituitary cells (ir GH by radioimmunoassay)
Format: cell-based
Settings: potency for GH release relative to standard hGRF(1-40)-OH = 100%; equimolar concentrations; incubation 3 to 4 hours
Experimental: To determine the relative effectiveness of certain representative synthetic peptides to promote the release of growth hormone, in vitro assays are carried out using synthetic hpGRF(1-40)-OH as a standard in side-by-side comparison with equimolar concentrations of the representative analogs which have been synthesized. Cultures are used which include cells of rat pituitary glands removed some three to five days previously. Such cultures are considered optimal for the secretion of growth hormone and are used for the comparative testing, in the general manner described in Vale et al. Endocrinology, 91, 562-572 (1972) and as more particularly described in Vale et al. Endocrinology, 112, 1553-1555 (1983). Incubation with the substance to be tested is carried out for 3 to 4 hours, and aliquots of the culture medium are removed and processed to measure their contents in immunoreactive GH(ir GH) by a well-characterized radioimmunoassay.

Q: `CCCC[C@H](NC(=O)[C@@H](NC(=O)[C@H](CC(=O)O)NC(=O)[C@H](CCC(N)=O)NC(=O)[C@H](CC(C)C)NC(=O)[C@H](CC(C)C)NC(=O)[C@H](CCCCN)NC(=O)[C@H](CCCNC(=N)N)NC(=O)[C@H](C)NC(=O)[C@H](CO)NC(=O)[C@H](CC(C)C)NC(=O)[C@H](CCC(N)=O)NC(=O)CNC(=O)[C@H](CC(C)C)NC(=O)[C@@H](NC(=O)[C@H](CCCCN)NC(=O)[C@H](CCCNC(=N)N)NC(=O)[C@H](Cc1ccc(O)cc1)NC(=O)[C@H](CO)NC(=O)[C@H](CC(N)=O)NC(=O)[C@@H](NC(=O)[C@H](Cc1ccccc1)NC(=O)[C@@H](NC(=O)[C@H](C)NC(=O)[C@H](CC(=O)O)NC(=O)[C@@H](C)NC(=O)[C@@H](N)Cc1ccc(O)cc1)[C@@H](C)CC)[C@@H](C)O)C(C)C)[C@@H](C)CC)C(=O)N[C@@H](CC(N)=O)C(=O)N[C@@H](CCCNC(=N)N)C(=O)NCC` [[D-Ala^2, Nle^27, Asn^28]-hGRF(1-29)-NHEt] (H-Y[dA]DAIFTNSYRKVLGQLSARKLLQDI[Nle]NR-NHEt) was tested. Which Comparison % did it give?
A: Its Comparison % is 1714%.

Q: Which Comparison % does the source give for `CCCC[C@H](NC(=O)[C@@H](NC(=O)[C@H](CC(=O)O)NC(=O)[C@H](CCC(N)=O)NC(=O)[C@H](CC(C)C)NC(=O)[C@H](CC(C)C)NC(=O)[C@H](CCCCN)NC(=O)[C@H](CCCNC(=N)N)NC(=O)[C@H](C)NC(=O)[C@H](CO)NC(=O)[C@H](CC(C)C)NC(=O)[C@H](CCC(N)=O)NC(=O)CNC(=O)[C@H](CC(C)C)NC(=O)[C@@H](NC(=O)[C@H](CCCCN)NC(=O)[C@H](CCCNC(=N)N)NC(=O)[C@H](Cc1ccc(O)cc1)NC(=O)[C@H](CO)NC(=O)[C@H](CC(N)=O)NC(=O)[C@@H](NC(=O)[C@H](Cc1ccccc1)NC(=O)[C@@H](NC(=O)[C@H](C)NC(=O)[C@H](CC(=O)O)NC(=O)[C@@H](C)NC(=O)[C@@H](N)Cc1ccc(O)cc1)[C@@H](C)CC)[C@@H](C)O)C(C)C)[C@@H](C)CC)C(=O)N[C@@H](CO)C(=O)N[C@@H](CCCNC(=N)N)C(N)=O` [[D-Ala^2, Nle^27]-hGRF(1-29)-NH2] here?
A: Its Comparison % is 429%.

Q: With `CCCC[C@H](NC(=O)[C@@H](NC(=O)[C@H](CCC(=O)O)NC(=O)[C@H](Cc1c[nH]cn1)NC(=O)[C@H](CC(C)C)NC(=O)[C@H](CC(C)C)NC(=O)[C@H](CCCCN)NC(=O)[C@H](CCCNC(=N)N)NC(=O)[C@H](C)NC(=O)[C@H](Cc1ccc(O)cc1)NC(=O)[C@H](CC(C)C)NC(=O)[C@H](CCC(N)=O)NC(=O)CNC(=O)[C@H](CC(C)C)NC(=O)[C@@H](NC(=O)[C@H](CCCNC(=N)N)NC(=O)[C@H](CCCNC(=N)N)NC(=O)[C@H](Cc1ccc(O)cc1)NC(=O)[C@H](CO)NC(=O)[C@H](CO)NC(=O)[C@@H](NC(=O)[C@H](Cc1ccccc1)NC(=O)[C@@H](NC(=O)[C@H](C)NC(=O)[C@H](CC(=O)O)NC(=O)[C@H](C)NC(=O)[C@@H](N)Cc1c[nH]cn1)[C@@H](C)CC)[C@@H](C)O)[C@@H](C)CC)[C@@H](C)CC)C(=O)N[C@H](CC(N)=O)C(=O)N[C@@H](CCCNC(=N)N)C(N)=O` [[Nle^27, D-Asn^28]-rGRF(1-29)-NH2] (H-HADAIFTSSYRRILGQLYARKLLHEI[Nle][dN]R-NH2) as the compound, how does the Comparison % read?
A: Its Comparison % is 321%.

Q: How did the Comparison % turn out when `CCCC[C@H](NC(=O)[C@@H](NC(=O)[C@H](CC(=O)O)NC(=O)[C@H](CCC(N)=O)NC(=O)[C@H](CC(C)C)NC(=O)[C@H](CC(C)C)NC(=O)[C@H](CCCCN)NC(=O)[C@H](CCCNC(=N)N)NC(=O)[C@H](C)NC(=O)[C@H](CO)NC(=O)[C@H](CC(C)C)NC(=O)[C@H](CCC(N)=O)NC(=O)CNC(=O)[C@H](CC(C)C)NC(=O)[C@@H](NC(=O)[C@H](CCCCN)NC(=O)[C@H](CCCNC(=N)N)NC(=O)[C@H](Cc1ccc(O)cc1)NC(=O)[C@H](CO)NC(=O)[C@H](CC(N)=O)NC(=O)[C@@H](NC(=O)[C@H](Cc1ccccc1)NC(=O)[C@@H](NC(=O)[C@H](C)NC(=O)[C@H](CC(=O)O)NC(=O)[C@H](C)NC(=O)[C@@H](N)Cc1ccc(O)cc1)[C@@H](C)CC)[C@@H](C)O)C(C)C)[C@@H](C)CC)C(=O)N[C@@H](CO)C(=O)N[C@@H](CCCNC(=N)N)C(N)=O` [[Nle^27]-hGRF(1-29)-NH2] was run?
A: Its Comparison % is 238%.

Q: Which Comparison % does the source give for “hGRF(1-40)-OH (YADAIFTNSYRKVLGQLSARKLLQDIMSRQQGESNQERGA-OH; UniProt P01286 32-71, looked up, fragment) [synthetic human pancreatic (tumor) GH releasing factor (1-40) free acid, used as standard for this test, reference compound]” here?
A: The Comparison % was 100%.
